Test results published in PubChem BioAssay (NCI).
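The compound was tested at five concentrations on cells cultured in 96-well plates, with a 48-hour exposure period. TGI: concentration producing complete growth inhibition.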

Columns and labels:
Test in all cases: NCI-60 cell line screen, 48 h
ACHN renal = system: ACHN renal
HL-60(TB) leukemia = system: HL-60(TB) leukemia
M19-MEL melanoma = system: M19-MEL melanoma
KM12 colon = system: KM12 colon
SF-295 CNS = system: SF-295 CNS
OVCAR-4 ovarian = system: OVCAR-4 ovarian
SF-268 CNS = system: SF-268 CNS
SK-MEL-28 melanoma = system: SK-MEL-28 melanoma
U251 CNS = system: U251 CNS
RPMI-8226 leukemia = system: RPMI-8226 leukemia
HT29 colon = system: HT29 colon
OVCAR-8 ovarian = system: OVCAR-8 ovarian
A498 renal = system: A498 renal
RXF-631 renal = system: RXF-631 renal
OVCAR-3 ovarian = system: OVCAR-3 ovarian
EKVX NSCLC = system: EKVX NSCLC
DMS 273 small cell lung = system: DMS 273 small cell lung
K-562 leukemia = system: K-562 leukemia
HCT-116 colon = system: HCT-116 colon
A549 NSCLC = system: A549 NSCLC
LXFL 529 NSCLC = system: LXFL 529 NSCLC
OVCAR-5 ovarian = system: OVCAR-5 ovarian
KM20L2 colon = system: KM20L2 colon
MOLT-4 leukemia = system: MOLT-4 leukemia
COLO 205 colon = system: COLO 205 colon
SF-539 CNS = system: SF-539 CNS
DLD-1 colon = system: DLD-1 colon
SNB-78 CNS = system: SNB-78 CNS
SK-MEL-5 melanoma = system: SK-MEL-5 melanoma
M14 melanoma = system: M14 melanoma
SW-620 colon = system: SW-620 colon
NCI-H522 lung = system: NCI-H522 lung
CCRF-CEM leukemia = system: CCRF-CEM leukemia
NCI-H226 lung = system: NCI-H226 lung
HOP-92 NSCLC = system: HOP-92 NSCLC
MALME-3M melanoma = system: MALME-3M melanoma
SN12C renal = system: SN12C renal
HOP-18 NSCLC = system: HOP-18 NSCLC
UACC-62 melanoma = system: UACC-62 melanoma
SNB-19 CNS = system: SNB-19 CNS
CAKI-1 renal = system: CAKI-1 renal
HCT-15 colon = system: HCT-15 colon
IGROV1 ovarian = system: IGROV1 ovarian
786-0 renal = system: 786-0 renal
HOP-62 NSCLC = system: HOP-62 NSCLC
DMS 114 small cell lung = system: DMS 114 small cell lung
LOX IMVI melanoma = system: LOX IMVI melanoma
NCI-H460 lung = system: NCI-H460 lung
UACC-257 melanoma = system: UACC-257 melanoma
TK-10 renal = system: TK-10 renal
UO-31 renal = system: UO-31 renal
RXF 393 renal = system: RXF 393 renal
SK-MEL-2 melanoma = system: SK-MEL-2 melanoma
SK-OV-3 ovarian = system: SK-OV-3 ovarian
SNB-75 CNS = system: SNB-75 CNS
NCI-H23 lung = system: NCI-H23 lung
XF 498 CNS = system: XF 498 CNS
HCC-2998 colon = system: HCC-2998 colon

Measured: TGI

COC(=O)C(Cc1cc(OC)c(OC)c(OC)c1)c1ccc(OC)cc1 (configuration not stated)
not listed: SK-MEL-2 melanoma | SK-OV-3 ovarian | SNB-75 CNS | NCI-H23 lung | XF 498 CNS | HCC-2998 colon
> 100 µM: all other assays above

COC1=CCC=C(C[C@@H]2NCCc3cc(OC)c(OC)cc32)C1
not listed: RXF-631 renal | HOP-18 NSCLC | DMS 114 small cell lung
> 100 µM: all other assays above
